# Experiments:
# [1] = Aorta contrast to noise ratio (CNR), arterial phase contrast enhanced abdominal CT; format: in vivo, minipig; details: for FBP [CNR]: 320 mg I/ml, 120 kVp, SoC
# Procedure: (§1) Three studies were carried out in two anaesthetized minipigs (abdominal maximum and minimum diameters approximately 36 cm and 20 cm, respectively). Minipigs were imaged on a Discovery CT 750 HD. Compositions of 160 mg I/ml and 200 mg I/ml Ioforminol were prepared. The 160 mg I/ml formulation included a sodium concentration of 82 mM and a calcium concentration of 0.9 mM. The 200 mg I/ml formulation included a sodium concentration of 73 mM and a calcium concentration of 0.8 mM. For human formulations the calcium concentration is likely to be slightly lower, providing an optimized Na/Ca ratio of 110-120. The Ioforminol formulations (2 ml/kg) were injected at a rate of 2 ml/s into a jugular vein, followed by a 20 ml saline flush at the same injection rate.
# (§2) For comparison, Ioforminol at a concentration of 320 mg I/ml and 120 kVp tube voltage was administered to represent the current standard of care (SoC) imaging in man. SoC scans were compared to scans performed with either […] or 200 mg I/ml contrast concentration in the same pig, with at least a 2 day washout period between each scanning session. Automated tube current modulation was used with a noise index level of 23 (SoC) and a tube rotation time of 0.7 s. Post-contrast CT images were acquired during the arterial phase, the portal venous phase, the venous phase and the late phase. Image reconstruction was done by (1) FBP, (2) ASiR 60% and (3) Veo. Pixel size was 0.703 mm×0.703 mm×2.5 mm.
# (§3) Iodine contrast enhancement was assessed by measuring the mean x-ray attenuation values (in HUs) within circular region of interests (ROIs). ROIs were placed in both aorta and muscle (quadratus lumborum) in arterial phase images and in the liver in venous phase images. See Tables 1-6 and corresponding FIGS. 1-6. The aorta contrast to noise ratio (CNR) was calculated as the difference in signal between the aorta and muscle, divided by the noise in muscle. The liver signal to noise ratio (SNR) was calculated as the ratio of the mean liver attenuation and the standard deviation (SD).
# [2] = Liver signal to noise ratio (SNR), venous phase contrast enhanced abdominal CT; format: in vivo, minipig; details: for FBP [SNR]: 320 mg I/ml, 120 kVp, SoC
# Procedure: as §1, §2, §3
# [3] = Viscosity of Ioforminol compositions; format: physicochemical; details: 20° C.
# Procedure: For X-ray diagnostic compositions which are administered by injection or infusion, the desired upper limit for the solution's viscosity at ambient temperature (20° C.) is generally about 30 mPas, however viscosities of up to 50 to 60 mPas and even more than 60 mPas are seen. With the low concentration of iodine in the composition of the invention the viscosity is below 10 mPas at 20° C., and this is even considerably lower at the lower end of the iodine concentration range. […] For comparison a 320 mg I/ml composition of Ioforminol has a viscosity of 28 mPas (at 20° C.). Particularly, for a 160 mg I/ml composition of Ioforminol the viscosity is only 2.9 mPas (at 20° C.), and for a 200 mg I/ml composition the viscosity is 4.7 mPas (20° C.). […] Such low viscosity has the advantage that the composition is easy to administer and the administration can be done more quickly with a higher volume per time unit, particularly as the injection pressure needed is considerably lower than with compositions with higher viscosities. The lower viscosity enables a reduction in the needle- or catheter diameter down to about 63% of the original diameter without effecting flow rate or injection pressure. As a consequence a hand-held syringe can be used rather than an autoinjector.
# [4] = Average cluster size in solution; format: physicochemical
# Excerpt: By intermolecular interactions the contrast media molecules form clusters that are continuously formed and broken up and the average cluster size may be described by a formation/destruction equilibrium. Ioforminol has an increased tendency to form clusters and in water at high concentration an average size of 4 molecules per cluster is predominating, whereas Iodixanol under similar conditions have a mean cluster size of 2.5 molecules. […] The cluster size affects the osmolality of the solution and larger clusters are reflected in a lower osmolality. The non-ideal behaviour of high concentration solutions permits the addition of physiological electrolytes to achieve isotonicity. […] This non-ideal behaviour persistent also at low concentrations enables the addition of physiological electrolytes to the current formulations.
# [5] = 160 mg I/ml, 80 kVp, CTDIvol 5.2 mGy, FIG. 2
# [6] = 200 mg I/ml, 80 kVp, CTDIvol 6.9 mGy, FIG. 1
# [7] = 200 mg I/ml, 100 kVp, CTDIvol 5.2 mGy, FIG. 3
# [8] = 160 mg I/ml, 80 kVp, CTDIvol 5.2 mGy, FIG. 5
# [9] = 200 mg I/ml, 80 kVp, CTDIvol 6.9 mGy, FIG. 4
# [10] = 200 mg I/ml, 100 kVp, CTDIvol 5.2 mGy, FIG. 6
compound,measurement,setting,value
"O=CN(CC(O)CN(C=O)c1c(I)c(C(=O)NCC(O)CO)c(I)c(C(=O)NCC(O)CO)c1I)c1c(I)c(C(=O)NCC(O)CO)c(I)c(C(=O)NCC(O)CO)c1I (centres unmarked) [Ioforminol, 5,5′-((2-hydroxypropane-1,3-diyl)bis(formylazanediyl))bis(N1,N3-bis(2,3-dihydroxypropyl)-2,4,6-triiodoisophthalamide)]",ASiR 60% [CNR],[1]; [5],15.1
same,Veo [CNR],[1]; [5],32.1
same,ASiR 60% [CNR],[1]; [6],23
same,Veo [CNR],[1]; [6],46.7
same,ASiR 60% [CNR],[1]; [7],17.7
same,Veo [CNR],[1]; [7],33.2
same,FBP [CNR],"[1]; CTDIvol 7.4 mGy, FIG. 2 and 3",16.9
same,FBP [CNR],"[1]; CTDIvol 9.8 mGy, FIG. 1",17.7
same,ASiR 60% [SNR],[2]; [8],7.7
same,Veo [SNR],[2]; [8],15.1
same,ASiR 60% [SNR],[2]; [9],9.5
same,Veo [SNR],[2]; [9],16.7
same,ASiR 60% [SNR],[2]; [10],7.9
same,Veo [SNR],[2]; [10],13.1
same,FBP [SNR],"[2]; CTDIvol 7.4 mGy, FIG. 5 and 6",8.2
same,FBP [SNR],"[2]; CTDIvol 9.8 mGy, FIG. 4",7.7
same,viscosity,[3]; 160 mg I/ml composition,2.9 mPas
same,viscosity,[3]; 200 mg I/ml composition,4.7 mPas
same,viscosity,[3]; 320 mg I/ml composition,28 mPas
same,average cluster size,[4]; in water at high concentration,4 molecules per cluster
same,average cluster size,[4]; low concentrations,2-3 molecules per cluster
"CC(=O)N(CC(O)CN(C(C)=O)c1c(I)c(C(=O)NCC(O)CO)c(I)c(C(=O)NCC(O)CO)c1I)c1c(I)c(C(=O)NCC(O)CO)c(I)c(C(=O)NCC(O)CO)c1I (centres unmarked) [Iodixanol, iodixanol, reference compound]",average cluster size,[4]; in water at high concentration,2.5 molecules per cluster
same,average cluster size,[4]; low concentrations,no longer present

# Source: patent publication US10004816B2, “X-ray imaging contrast media with low iodine concentration and X-ray imaging process” (GE HEALTHCARE AS, priority 2012, dated 2018)
